In US10370333B2 (Sanford Burnham Prebys Medical Discovery Institute, priority 2012, dated 2019):

What follows are molecules tested against TNAP (Homo sapiens (Human), UniProt P05186) (assay: TNAP (PPi) inhibition assay, pyrophosphate as substrate).
Format: biochemical
Description: Expression plasmids containing a secreted epitope-tagged TNAP were transfected into COS-1 cells for transient expression. The medium was replaced with Opti-MEM 24 h later and serum-free media containing secreted proteins was collected 60 hours after electroporation. The medium was dialyzed against TBS containing 1 mM MgCl2 and […] (to remove phosphate) and filtered through a […] cellulose acetate filter.
To determine the inhibition selectivity for inhibitor candidates, human TNAP, PLAP or IAP were added to microtiter plates followed by addition of the substrate pNPP (0.5 mM) and activity was measured in 1 M DEA-HCl buffer, pH 9.8 or in 1 M Tris-HCl buffer, pH 7.5, containing 1 mM MgCl2 and 20 μM ZnCl2, in the presence of potential inhibitors (0-30 μM). TNAP, PLAP and IAP activities were adjusted to an approximate λA405 nm, equivalent to 1, measured after 30 min. Residual AP activity in the presence of inhibitors was expressed as percentage of the control activity. To investigate the mechanism of inhibition, double reciprocal plots of enzyme activity (expressed as mA405 nm min−1) vs. substrate concentration were constructed, in the presence of various concentrations of added inhibitors (0-30 μM). The y-axis intercepts of the 1/v vs. 1/[S] plots, were then plotted vs. [I] to graphically extract Ki values as the x-intercept in this plot. […] Inhibitors were further tested and sorted based on their kinetic properties at pH 7.4 using PPi, the relevant natural substrate of TNAP. […] Amounts of released phosphate were measured using the Biomol Green Reagent (Biomol Research Laboratories, Inc., Plymouth Meeting, Pa.).

Compound | IC50 [nM]
COc1cc(Cl)c(Br)cc1S(=O)(=O)Nc1cccnc1 | < 100
COc1ccc(Br)cc1S(=O)(=O)Nc1cscn1 | > 1000
COc1ccc(OC)c(S(=O)(=O)Nc2cscn2)c1 | > 1000
COc1ccc(Cl)cc1S(=O)(=O)Nc1cncc(-c2ccccc2C(F)(F)F)c1 | 100 to 1000
COc1ccc(Cl)cc1S(=O)(=O)Nc1cncc(-c2ccc(O)cc2)c1 | < 100
COc1ccc(OC)c(S(=O)(=O)Nc2ccc(Nc3ccccc3)nc2)c1 | > 1000
O=C(O)c1cncc(NS(=O)(=O)c2cc(Cl)ccc2OC(F)(F)F)c1 | 100 to 1000
COc1ccc(-c2ccccc2)cc1S(=O)(=O)Nc1cccnc1 [Example I-7, 4-Methoxy-biphenyl-3-sulfonic acid pyridin-3-ylamide] | 100 to 1000
COc1ccc(-c2ccsc2)cc1S(=O)(=O)Nc1cccnc1 [Example I-8, 2-Methoxy-N-pyridin-3-yl-5-thiophen-3-yl-benzenesulfonamide] | 100 to 1000
COc1ccc(-c2ccoc2)cc1S(=O)(=O)Nc1cccnc1 [Example I-9, 5-Furan-3-yl-2-methoxy-N-pyridin-3-yl-benzenesulfonamide] | 100 to 1000
COc1ccc(-c2ccncc2)cc1S(=O)(=O)Nc1cccnc1 [Example I-10, 2-Methoxy-5-pyridin-4-yl-N-pyridin-3-yl-benzenesulfonamide] | > 1000
COc1ccc(S(=O)(=O)Nc2cccnc2)cc1Cl [Example I-12, 3-Chloro-4-methoxy-N-pyridin-3-yl-benzenesulfonamide] | > 1000
COc1c(Cl)cccc1S(=O)(=O)Nc1cccnc1 [Example I-13, 3-Chloro-2-methoxy-N-pyridin-3-yl-benzenesulfonamide] | > 1000
CNC(=O)c1ccc(OC)c(S(=O)(=O)Nc2cccnc2)c1 [Example I-16, 4-Methoxy-N-methyl-3-(pyridin-3-ylsulfamoyl)-benzamide] | > 1000
CCNC(=O)c1ccc(OC)c(S(=O)(=O)Nc2cccnc2)c1 [Example I-17, N-Ethyl-4-methoxy-3-(pyridin-3-ylsulfamoyl)-benzamide] | > 1000
CCCNC(=O)c1ccc(OC)c(S(=O)(=O)Nc2cccnc2)c1 [Example I-18, 4-Methoxy-N-propyl-3-(pyridin-3-ylsulfamoyl)-benzamide] | > 1000
COc1ccc(C(=O)Nc2ccccc2)cc1S(=O)(=O)Nc1cccnc1 [Example I-19, 4-Methoxy-N-phenyl-3-(pyridin-3-ylsulfamoyl)-benzamide] | > 1000
COc1ccc(C(=O)NC2CCCCC2)cc1S(=O)(=O)Nc1cccnc1 [Example I-20, N-Cyclohexyl-4-methoxy-3-(pyridin-3-ylsulfamoyl)-benzamide] | > 1000
COCCNC(=O)c1ccc(OC)c(S(=O)(=O)Nc2cccnc2)c1 [Example I-21, 4-Methoxy-N-(2-methoxy-ethyl)-3-(pyridin-3-ylsulfamoyl)-benzamide] | > 1000
COc1ccc(C(=O)N2CCN(C)CC2)cc1S(=O)(=O)Nc1cccnc1 [Example I-22, 2-Methoxy-5-(4-methyl-piperazine-1-carbonyl)-N-pyridin-3-yl-benzenesulfonamide] | > 1000
COc1ccc(C(=O)N2CCOCC2)cc1S(=O)(=O)Nc1cccnc1 [Example I-23, 2-Methoxy-5-(morpholine-4-carbonyl)-N-pyridin-3-yl-benzenesulfonamide] | > 1000
COc1cc(C)ccc1S(=O)(=O)Nc1cnc2ccccc2c1 [Example II-3, 2-Methoxy-4-methyl-N-quinolin-3-yl-benzenesulfonamide] | < 100
COc1ccc(S(=O)(=O)Nc2cnc3ccccc3c2)c(OC)c1 [Example II-4, 2,4-Dimethoxy-N-quinolin-3-yl-benzenesulfonamide] | > 1000
COc1ccc(-c2ccccc2)cc1S(=O)(=O)Nc1cnc2ccccc2c1 [Example II-6, 4-Methoxy-biphenyl-3-sulfonic acid quinolin-3-ylamide] | 100 to 1000
